Measured values reported in ChEMBL document CHEMBL1135956 (Bioorg Med Chem Lett, 2002).

Tests used:
Glucagon receptor [1] = biological target: T1, Glucagon receptor (Homo sapiens, UniProt P47871); assay: Binding affinity of first enantiomer (E1) against human glucagon receptor was determined
Glucagon receptor [2] = biological target: T1, Glucagon receptor; assay: Binding affinity of second diastereomer (D2) against human glucagon receptor was determined
Glucagon receptor [3] = biological target: T1, Glucagon receptor; assay: Binding affinity of second enantiomer (E2) against human glucagon receptor was determined
Glucagon receptor [4] = biological target: T1, Glucagon receptor; assay: Binding affinity of first diastereomer (D1) against human glucagon receptor was determined
[5] = Compound was evaluated for the functional activity by the inhibition of cAMP production

T1 sequence (P47871 whole entry): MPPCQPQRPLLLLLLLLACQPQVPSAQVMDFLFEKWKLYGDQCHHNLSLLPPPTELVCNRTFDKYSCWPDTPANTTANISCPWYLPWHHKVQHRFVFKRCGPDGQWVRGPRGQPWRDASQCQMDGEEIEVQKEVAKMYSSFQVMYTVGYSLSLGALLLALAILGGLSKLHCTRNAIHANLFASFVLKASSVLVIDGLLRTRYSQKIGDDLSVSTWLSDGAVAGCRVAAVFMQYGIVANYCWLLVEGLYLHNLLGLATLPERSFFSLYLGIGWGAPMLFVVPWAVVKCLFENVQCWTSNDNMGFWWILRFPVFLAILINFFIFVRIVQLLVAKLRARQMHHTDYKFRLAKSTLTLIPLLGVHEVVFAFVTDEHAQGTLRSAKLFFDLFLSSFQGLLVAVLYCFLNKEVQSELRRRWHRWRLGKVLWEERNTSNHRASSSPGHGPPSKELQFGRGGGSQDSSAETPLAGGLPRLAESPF

Compound | IC50 (Glucagon receptor [1]) | IC50 (Glucagon receptor [2]) | IC50 (Glucagon receptor [3]) | IC50 (Glucagon receptor [4]) | IC50 [5]
CCc1c(C(C)C)nc(C(C)C)c(C(C)O)c1-c1ccc(F)cc1O (centres undefined) | 5000 nM | 2000 nM | 16 nM | 20 nM | –
CCCCc1c(C(C)C)nc(C(C)C)c(C(C)O)c1-c1ccc(F)cc1O (centres undefined) | – | 1000 nM | – | 28 nM | –
CCCc1c(C(C)C)nc(C(C)C)c(C(C)O)c1-c1ccccc1O (centres undefined) | 190 nM | 1100 nM | 25 nM | 40 nM | –
CCCc1c(C(C)C)nc(C(C)C)c(C(C)O)c1-c1ccc(F)cc1O (centres undefined) | 8000 nM | 1000 nM | 10 nM | 18 nM | 6.5 nM
CCCCCc1c(C(C)C)nc(C(C)C)c(C(C)O)c1-c1ccc(F)cc1O (centres undefined) | 8000 nM | 2200 nM | 12 nM | 30 nM | –
